From PubChem BioAssay AID256 (DTP/NCI, 2004)
Several values for one entry are separate records, joined by “and”; a condition that tells them apart may be missing. Equal values may be shown once. Inconclusive results and toxic doses are left out.

System: CD2F1 mice, L1210 leukemia ip, survival T/C
Assay: NCI In Vivo Anticancer Drug Screen. Data for tumor model L1210 Leukemia (intraperitoneal) in CD2F1 (CDF1) mice
Details: higher = longer survival
Outline: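 Mice carrying a transplanted tumor received test compound or vehicle alone. The value is the measurement in the treated group divided by that in the vehicle-treated control group.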

[1] = endpoint: mean survival time, dose: 100.0 mg/kg/injection, schedule: Q01DX009 (ip), vehicle: saline with Tween-80
[2] = endpoint: mean survival time, dose: 200.0 mg/kg/injection, schedule: Q01DX009 (ip), vehicle: saline with Tween-80
[3] = endpoint: mean survival time, dose: 400.0 mg/kg/injection, schedule: Q01DX009 (ip), vehicle: saline with Tween-80
[4] = endpoint: mean survival time, dose: 50.0 mg/kg/injection, schedule: Q01DX009 (ip), vehicle: saline with Tween-80
[5] = endpoint: mean survival time, dose: 100.0 mg/kg/injection, schedule: Q01DX009 (ip), vehicle: saline
[6] = endpoint: mean survival time, dose: 200.0 mg/kg/injection, schedule: Q01DX009 (ip), vehicle: saline
[7] = endpoint: mean survival time, dose: 100.0 mg/kg/injection, schedule: Q01DX001 (ip), vehicle: saline with Tween-80
[8] = endpoint: mean survival time, dose: 200.0 mg/kg/injection, schedule: Q01DX001 (ip), vehicle: saline with Tween-80
[9] = endpoint: mean survival time, dose: 400.0 mg/kg/injection, schedule: Q01DX001 (ip), vehicle: saline with Tween-80

COC1OC(COC(=O)c2ccc([N+](=O)[O-])cc2)C(SC#N)C1O (stereo not given)
T/C (endpoint: mean survival time, dose: 150.0 mg/kg/injection, schedule: Q01DX001 (ip), vehicle: saline): 93 % of control

O=S(=O)(F)c1ccc(N=C=S)cc1
T/C (endpoint: mean survival time, dose: 12.5 mg/kg/injection, schedule: Q01DX009 (ip), vehicle: saline with Tween-80): 107 % of control
T/C (endpoint: mean survival time, dose: 25.0 mg/kg/injection, schedule: Q01DX009 (ip), vehicle: saline with Tween-80): 97 % of control
T/C (endpoint: mean survival time, dose: 100.0 mg/kg/injection, schedule: Q04DX003 (ip), vehicle: saline with Tween-80): 94 % of control
T/C (endpoint: mean survival time, dose: 200.0 mg/kg/injection, schedule: Q04DX003 (ip), vehicle: saline with Tween-80): 97 % of control
T/C (endpoint: mean survival time, dose: 400.0 mg/kg/injection, schedule: Q04DX003 (ip), vehicle: saline with Tween-80): 100 % of control

CCOC(=O)Nc1cccc(Cl)c1F
T/C [1]: 91 % of control
T/C [2]: 97 % of control
T/C [3]: 96 % of control

COc1ccc(C(=O)/C=C/c2ccc(O)cc2)cc1
T/C (endpoint: mean survival time, dose: 37.5 mg/kg/injection, schedule: Q01DX009 (ip), vehicle: saline): 98 % of control
T/C (endpoint: mean survival time, dose: 75.0 mg/kg/injection, schedule: Q01DX009 (ip), vehicle: saline): 102 % of control
T/C (endpoint: mean survival time, dose: 150.0 mg/kg/injection, schedule: Q01DX009 (ip), vehicle: saline): 98 % of control

CC(C)(C)c1ccc(O)c(Sc2cc(C(C)(C)C)ccc2O)c1
T/C (endpoint: mean survival time, dose: 50.0 mg/kg/injection, schedule: Q01DX009 (ip), vehicle: other): 96 % of control
T/C (endpoint: mean survival time, dose: 100.0 mg/kg/injection, schedule: Q01DX009 (ip), vehicle: other): 98 % of control
T/C [1]: 98 % of control
T/C (endpoint: mean survival time, dose: 200.0 mg/kg/injection, schedule: Q01DX009 (ip), vehicle: other): 101 % of control
T/C [2]: 103 % of control
T/C [3]: 94 % of control

CSc1nc(N)c(N=O)c(=O)[nH]1
T/C (endpoint: mean survival time, dose: 100.0 mg/kg/injection, schedule: Q01DX001 (ip), vehicle: Klucel (hydroxypropylcellulose) (HPC)): 98 % of control
T/C (endpoint: mean survival time, dose: 200.0 mg/kg/injection, schedule: Q01DX001 (ip), vehicle: Klucel (hydroxypropylcellulose) (HPC)): 100 % of control
T/C (endpoint: mean survival time, dose: 400.0 mg/kg/injection, schedule: Q01DX001 (ip), vehicle: Klucel (hydroxypropylcellulose) (HPC)): 109 % of control

CCCC/C=C/C=C/CCCC
T/C [4]: 103 % of control
T/C [1]: 92 % of control
T/C [2]: 107 % of control

CNC(C)COc1ccc(O)cc1 (stereo not given)
T/C [5]: 110 % of control
T/C (endpoint: mean survival time, dose: 100.0 mg/kg/injection, schedule: Q04DX003 (ip), vehicle: saline): 108 % of control
T/C [6]: 110 % of control
T/C (endpoint: mean survival time, dose: 200.0 mg/kg/injection, schedule: Q04DX003 (ip), vehicle: saline): 104 % of control
T/C (endpoint: mean survival time, dose: 400.0 mg/kg/injection, schedule: Q04DX003 (ip), vehicle: saline): 114 % of control

COc1ccc2c(c1)OC(C)(C)C(c1ccccc1)=C2c1ccc(OCCN2CCCC2)cc1
T/C (endpoint: mean survival time, dose: 75.0 mg/kg/injection, schedule: Q01DX001 (ip), vehicle: saline): 98 % of control

CCOc1ccccc1/C=C1\N=C(c2cc(OC)c(OC)c(OC)c2)OC1=O
T/C (endpoint: mean survival time, dose: 100.0 mg/kg/injection, schedule: Q04DX002 (ip), vehicle: saline with Tween-80): 106 % of control
T/C (endpoint: mean survival time, dose: 200.0 mg/kg/injection, schedule: Q04DX002 (ip), vehicle: saline with Tween-80): 100 % of control
T/C (endpoint: mean survival time, dose: 400.0 mg/kg/injection, schedule: Q04DX002 (ip), vehicle: saline with Tween-80): 95 % of control

CC1C=NNC1=O (stereo not given)
T/C (endpoint: mean survival time, dose: 8.0 mg/kg/injection, schedule: Q03HX016 (ip), vehicle: saline): 101 % of control
T/C (endpoint: mean survival time, dose: 8.0 mg/kg/injection, schedule: Q03HX024 (ip), vehicle: saline): 96 % of control
T/C (endpoint: mean survival time, dose: 12.5 mg/kg/injection, schedule: Q01DX009 (ip), vehicle: Klucel (hydroxypropylcellulose) (HPC)): 97 % of control
T/C (endpoint: mean survival time, dose: 16.0 mg/kg/injection, schedule: Q03HX016 (ip), vehicle: saline): 98 % of control
T/C (endpoint: mean survival time, dose: 16.0 mg/kg/injection, schedule: Q03HX024 (ip), vehicle: saline): 100 % of control
T/C (endpoint: mean survival time, dose: 25.0 mg/kg/injection, schedule: Q01DX009 (ip), vehicle: Klucel (hydroxypropylcellulose) (HPC)): 110 % of control
T/C (endpoint: mean survival time, dose: 32.0 mg/kg/injection, schedule: Q03HX016 (ip), vehicle: saline): 112 % of control
T/C (endpoint: mean survival time, dose: 32.0 mg/kg/injection, schedule: Q03HX024 (ip), vehicle: saline): 116 % of control
T/C (endpoint: mean survival time, dose: 50.0 mg/kg/injection, schedule: Q01DX009 (ip), vehicle: Klucel (hydroxypropylcellulose) (HPC)): 111 % of control
T/C (endpoint: mean survival time, dose: 64.0 mg/kg/injection, schedule: Q01DX009 (ip), vehicle: saline): 109 % of control
T/C (endpoint: mean survival time, dose: 64.0 mg/kg/injection, schedule: Q03HX016 (ip), vehicle: saline): 110 % of control
T/C (endpoint: mean survival time, dose: 64.0 mg/kg/injection, schedule: Q03HX024 (ip), vehicle: saline): 108 % of control
T/C (endpoint: mean survival time, dose: 64.0 mg/kg/injection, schedule: Q04DX003 (ip), vehicle: saline): 103 % of control
T/C (endpoint: mean survival time, dose: 64.0 mg/kg/injection, schedule: Q08DX002 (ip), vehicle: saline): 102 % of control
T/C [5]: 117 % of control
T/C (endpoint: mean survival time, dose: 128.0 mg/kg/injection, schedule: Q01DX009 (ip), vehicle: saline): 118 % of control
T/C (endpoint: mean survival time, dose: 128.0 mg/kg/injection, schedule: Q04DX003 (ip), vehicle: saline): 103 % of control
T/C (endpoint: mean survival time, dose: 128.0 mg/kg/injection, schedule: Q08DX002 (ip), vehicle: saline): 101 % of control
T/C [6]: 123 % of control
T/C (endpoint: mean survival time, dose: 256.0 mg/kg/injection, schedule: Q04DX003 (ip), vehicle: saline): 110 % of control
T/C (endpoint: mean survival time, dose: 256.0 mg/kg/injection, schedule: Q08DX002 (ip), vehicle: saline): 102 % of control
T/C (endpoint: mean survival time, dose: 400.0 mg/kg/injection, schedule: Q01DX009 (ip), vehicle: Klucel (hydroxypropylcellulose) (HPC)): 155 % of control
T/C (endpoint: mean survival time, dose: 512.0 mg/kg/injection, schedule: Q04DX003 (ip), vehicle: saline): 103 % of control
T/C (endpoint: mean survival time, dose: 512.0 mg/kg/injection, schedule: Q08DX002 (ip), vehicle: saline): 106 % of control

NC(CCc1ccc2c(c1)OCO2)C(=O)O (stereo not given)
T/C [7]: 97 % of control
T/C [8]: 100 % of control
T/C [9]: 90 % of control

CO[C@@]12[C@@H]3N[C@@H]3CN1C1=C(C(=O)C(NCCN)=C(C)C1=O)[C@@H]2COC(N)=O
T/C (endpoint: median survival time, dose: 0.75 mg/kg/injection, schedule: Q01DX001 (ip), vehicle: water): 123 % of control and 110 % of control
T/C (endpoint: median survival time, dose: 1.5 mg/kg/injection, schedule: Q01DX001 (ip), vehicle: water): 111 % of control
T/C (endpoint: median survival time, dose: 6.0 mg/kg/injection, schedule: Q01DX001 (ip), vehicle: water): 94 % of control

O=S(=O)(/N=C1\c2ccccc2/C(=N\S(=O)(=O)c2ccccc2)C2C3C=CC(C3)C12)c1ccccc1 (stereo not given)
T/C (endpoint: mean survival time, dose: 25.0 mg/kg/injection, schedule: Q01DX001 (ip), vehicle: saline sonified): 107 % of control
T/C (endpoint: mean survival time, dose: 50.0 mg/kg/injection, schedule: Q01DX001 (ip), vehicle: saline sonified): 102 % of control
T/C (endpoint: mean survival time, dose: 100.0 mg/kg/injection, schedule: Q01DX001 (ip), vehicle: saline sonified): 101 % of control

COc1cc(Cl)ccc1NC(=O)Oc1ccc([N+](=O)[O-])cc1
T/C [4]: 96 % of control
T/C [1]: 96 % of control
T/C [2]: 100 % of control

O=C(Cc1ccc([N+](=O)[O-])cc1)c1ccc(O)cc1O
T/C (endpoint: mean survival time, dose: 100.0 mg/kg/injection, schedule: Q04DX003 (ip), vehicle: Klucel (hydroxypropylcellulose) (HPC)): 96 % of control
T/C (endpoint: mean survival time, dose: 200.0 mg/kg/injection, schedule: Q04DX003 (ip), vehicle: Klucel (hydroxypropylcellulose) (HPC)): 98 % of control
T/C (endpoint: mean survival time, dose: 400.0 mg/kg/injection, schedule: Q04DX003 (ip), vehicle: Klucel (hydroxypropylcellulose) (HPC)): 103 % of control

CCOC(=O)CN1C(=O)C(Cl)=C(Cl)C1=O
T/C (endpoint: mean survival time, dose: 12.5 mg/kg/injection, schedule: Q04DX003 (ip), vehicle: saline with Tween-80): 98 % of control

N#Cc1ccccc1C(C#N)c1ccc([N+](=O)[O-])cc1 (stereo not given)
T/C (endpoint: mean survival time, dose: 50.0 mg/kg/injection, schedule: Q04DX003 (ip), vehicle: DMSO): 93 % of control
T/C (endpoint: mean survival time, dose: 100.0 mg/kg/injection, schedule: Q04DX003 (ip), vehicle: DMSO): 98 % of control
T/C (endpoint: mean survival time, dose: 200.0 mg/kg/injection, schedule: Q04DX003 (ip), vehicle: DMSO): 93 % of control
T/C (endpoint: mean survival time, dose: 400.0 mg/kg/injection, schedule: Q04DX003 (ip), vehicle: DMSO): 96 % of control

C(=C\c1ccccn1)/c1ccccc1
T/C [7]: 100 % of control
T/C [1]: 94 % of control
T/C [8]: 89 % of control
T/C [2]: 101 % of control
T/C [9]: 92 % of control

CC(=O)C(=O)O.CC(=O)C(=O)O.[NH-]C1CCCCC1[NH-].[Pt+2] (stereo not given)
T/C (endpoint: mean survival time, dose: 1.56 mg/kg/injection, schedule: Q04DX003 (ip), vehicle: other): 109 % of control
T/C (endpoint: mean survival time, dose: 12.5 mg/kg/injection, schedule: Q04DX003 (ip), vehicle: other): 120 % of control
T/C (endpoint: median survival time, dose: 25.0 mg/kg/injection, schedule: Q01DX009 (ip), vehicle: dextrose): 87 % of control
